Reference: patent publication US20250255977A1, “EPSILON-POLY-L-LYSINE-BASED DRUG CONJUGATE, INTERMEDIATE THEREOF, AND APPLICATION THEREOF” (SHANGHAI BEST-LINK BIOSCIENCE, LLC, priority 2021, published 2025)
Like-named read-outs stand apart in the source and are kept apart here.

Assays:
[1] = BALB/C nude, mouse, in vivo, iv, 10 mg/kg
Procedure: Mice were killed at set time points. Plasma was taken after blood centrifugation. Tumor tissues were isolated, temporarily stored in dry ice and then transferred to −80° C. freezer for later use.
Tumor tissues were thawed, weighed and then added a certain amount of 50/50 methanol and water. The mixture was homogenized on the handheld homogenizer with ice bath, centrifuged at 4° C. 6000×g for 10 min, and the supernatant was collected.
30 μL of plasma or homogenized tumor supernatant were taken and added 200 μL of acetonitrile with internal standard (tolbutamide, 50 ng/mL). The mixture was vortexed for 5 min and centrifuged at 6000×g for 10 min. 75 μL of the supernatant was transferred to a 96-well plate pre-added with 75 μL of water and shaked at 500 rpm for 5 min. 2 μL of sample was injected for LC MS/MS analysis.
Column: ACQUITY UPLC BEH C18 (2.1×50 mm, 1.7 μm)
Phase A: 0.1% formic acid/water, Phase B: 0.1% formic acid/acetonitrile

HepG2 tumors = assay: In vivo efficacy in HepG2 xenograft CDX mouse model; parameters: species or system BALB/C nude mice; settings: Day 33
Procedure: Biological Assessment Example F: […] The tumor volume was calculated as: […] The evaluation criteria are as follows: […]

[2] = tested on: H69 small cell lung cancer; assay: Efficacy on subcutaneous transplanted 1200 mm^3 H69 small cell lung cancer model; format: in vivo, BALB/C nude mice; settings: topotecan MTD 2 mg/kg (free base) once a day for five days; 1200 mm^3 tumors
Description: Biological Assessment Example I: Comparison of Efficacy of 101B00G and Topotecan on Subcutaneous Transplanted 1200 mm^3 H69 Small Cell Lung Cancer Model

Compound | Plasma concentration of released drug, average value ([1]; 0.083 h) | Plasma concentration of released drug, average value ([1]; 0.5 h) | Plasma concentration of released drug, average value ([1]; 1 h) | Plasma concentration of released drug, average value ([1]; 3 h) | Plasma concentration of released drug, average value ([1]; 8 h) | TGI (%) / tumor inhibition rate (HepG2 tumors) | Increase of tumor volume on Day 22 compared with the initial value [2]
CCc1c2c(nc3ccc(OC(=O)N4CCC(N5CCCCC5)CC4)cc13)-c1cc3c(c(=O)n1C2)COC(=O)[C@]3(O)CC [irinotecan] | 865 | 385 | 407 | 172.6 | 27.7 | −49% | 
CC[C@@]1(O)C(=O)OCc2c1cc1n(c2=O)Cc2cc3c(CN(C)C)c(O)ccc3nc2-1 [topotecan] |  |  |  |  |  |  | 22%
